melting point [°C]	Structure (SMILES)
122	CC(C)(C)OC(=O)N[C@@H](Cc1cc(F)cc(F)c1)[C@H](O)CO
227 to 229	COc1cc2c(cc1-c1cccnc1)-c1c(-c3cncs3)c3c(n1CC2)C(=O)N(C(C)(C)C)CCCC3
194 to 196	COc1cc2c(cc1OC)-c1c(C(=O)c3ccccc3)c(-c3cc(C)c(O)c(C)c3)c(C)n1CC2
111 to 114	CCOC(=O)NC(C)=N
146 to 147	CCOC(=O)c1c(C)nc2c(c1N)c1c(n2Cc2ccccc2)CCCC1
149 to 150	Cc1c(C)c2c(c(C)c1NS(=O)(=O)CCCC(F)(F)F)C(c1ccc(C(C)C)cc1)CO2 (configuration not stated)
281	Nc1cccc(C(=O)Nn2cnnn2)c1
190 to 191	CC(=O)OC(C)OC1=C(C(=O)Nc2cccc(C)n2)N(C)S(=O)(=O)c2ccccc21 (configuration not stated)
136	N#CCc1cccc2c(-c3ccc(F)cc3)nccc12
163	CC1(C)CS(=O)(=O)CC(C)(C)[NH+]1[O-]
66 to 68	CCN1CC(=O)N(CCc2ccccc2)C1=S
121 to 124	CCOC(=O)C(O)c1cc(Cl)cc2cccnc12 (configuration not stated)
114 to 117	COc1ccccc1-c1ccc(S(=O)(=O)Nc2onc(C)c2Br)s1
243 to 245	COCc1c(C(=O)OC(C)C)ncc2[nH]c3c(c12)C(=O)CCC3
217 to 219	NS(=O)(=O)c1cc2c(s1)S(=O)(=O)CC(Br)C2O (configuration not stated)
93.8	CC(C)(C)Cc1ccc2c(c1)C(=O)c1ccccc1C2=O
134 to 135	COC(=O)c1cc(C#CC2(c3ccc(OC)c(OC4CCCC4)c3)CCC(=O)CC2)cc(C(=O)OC)c1
217 to 220	Nc1cc(C#Cc2ccc3c(C(=O)Nc4cccc(C(F)(F)F)c4)cccc3c2)ncn1
209 to 210	Cc1nn(C)c(-n2ccc3cc(Cl)cnc32)c1/C=C/C(=O)NS(=O)(=O)NCC1CC1
> 200	O=C1Cc2cc3c(cc2C(c2ccccc2)=NN1c1ccc([N+](=O)[O-])cc1)OCO3
139 to 140	Nc1ccnc(CCCCN2C(=O)c3ccccc3C2=O)n1
108 to 109	CCSc1ccc(-c2coc3ccc(-c4nnc(C)o4)cc23)c(Cl)c1
110 to 111	Fc1ccc(Cc2ccccc2N2CCN(c3ccncc3)CC2)cc1
57	CC1(C)C(C=CC(=O)Oc2ccccc2)C1C(=O)O (configuration not stated)
76 to 78	CC1(CSc2ccc(N)c([N+](=O)[O-])c2)CC1(Cl)Cl (configuration not stated)
190 to 191	COCC(=O)Nc1ccc2ncnc(Nc3cccc(Br)c3)c2c1

melting point [°C]	Structure (SMILES)
147 to 149	CCOC(=O)CNC(=S)Cc1cnc(C)c(O)c1CO
101 to 103	COC(=O)c1ccc(C(=O)NCc2cc(OC)cc(OC)c2)cc1Cl
105 to 107	CC1CCCC(C)N1c1cc(F)cc(C(=O)Nc2ccc(OCCN3CCOCC3)c3ccccc23)c1 (configuration not stated)
257	O=P(O)(O)C(O)(Cc1ccc2ccccc2c1)P(=O)(O)O
> 300	N#Cc1cccc2c1NC(=O)C2c1ncnc2c1cnn2C1CCCCC1 (configuration not stated)
146 to 148	Cc1cnc(Cl)c(C(=O)N(CCO)Cc2cc(C(F)(F)F)cc(C(F)(F)F)c2)c1-c1ccccc1
194 to 196	COc1cc2ccccc2cc1C(=O)NNC(=O)c1ccc2ccccc2c1
269 to 273	O=C(O)c1cn(-c2cnsn2)c2nc(N3CCCC3)c(F)cc2c1=O
112 to 113	CSc1ccc([N+](=O)[O-])cc1C(=O)OC(C)(C)C
260 to 262	O=C(Nc1c[nH]nc1C(=O)NCCNc1ccccn1)c1ccccn1
40	Cc1coc(-c2cccnc2)n1
168 to 170	Cc1nc(Nc2ccccc2)sc1-c1ccncc1
219 to 220	O=C(OC(Cn1ccnc1)c1ccc2ccccc2c1)c1ccccc1 (configuration not stated)
205 to 207	O=C(O)c1cccc(C(CC(=O)c2ccc(F)cc2)CC(=O)c2ccc(F)cc2)c1
55 to 59	C=C(c1ccccc1)c1cccc(NS(=O)(=O)C(F)(F)F)c1
146 to 151	O=C(Cc1ccccc1)N[C@@H](Cc1ccc(OCCc2coc(-c3ccccc3)n2)cc1)C(=O)O
232 to 234	CCC(C)CNC1=NS(=O)(=O)c2sc(Cl)cc2N1 (configuration not stated)
238	CNC(=O)Nc1snc(OC(C)C)c1C#N
92 to 98	O=C1OC(CCCN2CCN(c3ncccn3)CC2)CN1c1ccccc1 (configuration not stated)
> 250	CN1C(=O)COc2cc3c(cc21)C1(CO3)C(=O)Nc2ccccc21 (configuration not stated)
132 to 134	CC(=O)c1cc(N(C)C)ccc1NC(=O)c1ccccc1OCc1ccccc1
164 to 166	O=C(CSc1c(O)cc(-c2ccccc2)oc1=O)c1ccccc1
147 to 149	COC(C)=Nc1nc[nH]c1C#N
225 to 227	Nc1c(-c2cc(Cl)ccc2O)c2ccc(C(F)(F)F)cc2[nH]c1=O
198 to 199	COc1cc2c(cc1O)CCCC(C(=O)N1CCN(C(=O)c3cc(OC)c(OC)c(OC)c3)CC1)=C2
69 to 70	CCCCCCCCS(=O)(=O)C(Cc1ccc(OCCN2CCCCC2)cc1)C(=O)NO (configuration not stated)

melting point [°C]	Structure (SMILES)
298	O=C(O)c1cc(=O)c2c(I)cc(Cl)cc2[nH]1
121	CC(=O)OCOC(=O)c1oc(-c2ccccc2)cc(=O)c1Br
154 to 155	Cn1ncc(/C=C/C(=O)Nc2ccc(OCc3nnco3)cc2)c1-c1ccc(F)cc1
81.5 to 82	CCOC(=O)COc1cc(OCc2ccccc2)ccc1C(=O)CC
172	Cc1nc2c(N)nc3cc(OCc4ccccc4)ccc3c2n1CC(C)C
186 to 191	O=c1[nH]c2ccc(C3=NOC(CN4CCC(C(O)c5ccc(F)cc5)CC4)C3)cc2o1 (configuration not stated)
138 to 139	CC(=O)c1ccc(NC(=O)C(N)c2ccc3c(c2)C(C)(C)CCC3(C)C)cc1 (configuration not stated)
64 to 65	CCOC(=O)C(C)(C)CCCCOc1ccc(NC(=O)CCCCCn2ccnc2)cc1
95 to 97	CC(C)(C)NS(=O)(=O)c1cccnc1F
271	CNc1nc(Nc2ccc(Cl)c(Cl)c2)ncc1N1CCNC1=O
170 to 172	CC(C)C1(C)NC(c2ncc(CO)cc2C(=O)O)=NC1=O (configuration not stated)
203 to 204	COc1cc(O)c2c(=O)c(OC)c(-c3ccc(OC4OC(CO)C(O)C(O)C4O)c(OC)c3)oc2c1 (configuration not stated)
256	O=C1c2ccccc2C(=O)c2sc(-c3cccnc3)nc21
195 to 198	COc1cc(C(=O)N[C@H]2CCNC2)ccc1Nc1ncc2c(n1)N(C1CCCCC1)CC(F)(F)C(=O)N2C
125 to 130	Cn1c(C(F)(F)F)cc(=O)n(-c2ccc3snc(C4OCCCS4)c3c2)c1=O (configuration not stated)
149 to 150	CSc1cc(C)nc(SC)c1NC(=O)CCCSc1nc2ccccc2o1
145 to 146	O=[N+]([O-])CS(=O)(=O)c1cccc2c1sc1ccccc12
206 to 209	OC1CSC(Oc2cccc(-c3cnccn3)c2)C(O)C1O (configuration not stated)
130 to 131	CC(C)(C)OC(=O)NS(N)(=O)=O
194 to 196	CCOC(=O)c1ncc2[nH]c3cccc(Oc4ccc(Cl)cn4)c3c2c1C
97 to 99	CC1=CC(=Cc2cc(C)cc(C3(C)CCCCC3)c2OCc2ccccc2)C(O)C(C2(C)CCCCC2)=C1 (configuration not stated)
126 to 128	O=C(NCCN1CCCCC1)Nc1ccc(-c2nnc(CSCCOc3ccccc3)o2)cc1
148 to 152	COc1cccc(NCC(=O)Nc2ccc(S(N)(=O)=O)cc2Cl)c1
205 to 206	O=C1c2ccccc2C(=O)N1Nc1ccc(Br)cc1
65 to 66	COCc1nc(C(C)(C)C)c[nH]1
55 to 58	CCOC(=O)c1c(C(F)(F)F)nc(C(F)(F)F)c(C(=O)OCC)c1C

melting point [°C]	Structure (SMILES)
112 to 113	CCCCC1(CCCC)CCc2c(OCc3ccccc3C#N)cccc2C1O (configuration not stated)
100	CCCCCCc1cc2c(cc1S)C(=O)CC2
97 to 99	COC1=C(CCO)C(=O)C(OC)=C(CCCCCC2=C(OC)C(=O)C(CCO)=C(OC)C2=O)C1=O
230	COc1ccc2cc(O)c(C(=O)Nc3ccccc3)cc2c1
110 to 112	COc1ccc2c(c1)c(OC(C)C)c(C(=O)O)n2C
149 to 151	Cn1cc(C#N)n(-c2ccc(Cl)cc2)c1=O
215 to 216	NC(=O)c1cnn(-c2ccc(F)cc2)c1-c1ccncc1
254 to 257	C=C(C)C(=O)Nc1ccc(NC(=O)C(=C)C)cc1
73 to 73.5	Cc1cc(C)c(NC(=O)OC(C)(C)C)c(C)c1
91	COc1ccccc1OCCN1CCC(Cc2c[nH]c3ccc(F)cc23)CC1
146 to 148	Cc1noc(-c2ccc(F)cc2N)n1
> 270	O=C(NCc1cc(Br)cc2[nH]c(=O)c(=O)[nH]c12)c1ccccn1
161 to 164	CCOC(=O)C(Cl)=Cc1cc(NC(=O)C2=C(C(=O)N(C)C)CCCC2)ccc1Cl
138 to 140	COC(=O)c1ccc(Cc2cccc3ccc(C#N)cc23)c(OC)c1
75 to 77	COc1ccc(C(C)(C)C)cc1S(=O)(=O)Cl
186 to 188	CC(=O)n1cc(O)c2cc(Cl)ccc21
122 to 126	NC(=O)Cc1cc(Oc2ccc3c(ccn3C(=O)Nc3ccc(CN4CCN(C5CC5)CC4)c(C(F)(F)F)c3)c2)ncn1
154 to 155	Cc1nc(N2CCCC(Cc3ccc(F)cc3)C2=O)sc1C(=O)NCc1ccccc1 (configuration not stated)
147 to 148	Cc1oc(C=Cc2cccc(Cl)c2)nc1CO
125	CCC(=O)Nc1ccnn1-c1c(Cl)cc(Cl)cc1Cl
220 to 223	CCOc1ccc(-c2ccc3c(c2)C=C(C(=O)Nc2ccc(CN(C)C4CCC5(CC4)OCCO5)cc2)CCS3(=O)=O)cc1
91	COC(=O)c1c(C)c(-c2cccnc2)n2c1CSC2
154 to 155	C[C@H](NC(c1ccccc1)(c1ccccc1)c1ccccc1)C(=O)O

Structure (SMILES)	melting point [°C]
C/C=C/Cn1nc(C(=O)c2cccc(O)c2)c2ccccc21	75 to 78

Reference: a melting point compilation (Tetko et al.; mined from patent text by program, amines drawn as free bases though some values may be those of a salt)
